From US11033577B2, “Polymer conjugate of hexa-coordinated platinum complex” (priority 2015, dated 2021)

Legend:
[1] = Maximum tolerable dose (MTD dose) in nude mice; assay type: in vivo, BALB/cA-nu/nu mouse; conditions: administered once, caudal vein, dose in terms of drug
Method: Human stomach cancer 4-1ST was collected subcutaneously from a nude mouse and was finely cut into blocks each measuring about 3 mm on each side. The tumor blocks thus obtained were subcutaneously transplanted into the dorsal side of nude mice using a trocar. On the 15th day after transplantation, where the average tumor volume had reached about 100 to 200 mm^3, various drugs were administered through the caudal vein. The use and dose (in terms of drug) of the various administered drugs are as follows. In regard to the Example 1 compound, the compound was dissolved in a 5% glucose injectable solution, and the solution was administered once at a dose of 25 mg/kg or 12.5 mg/kg. In regard to the Example 2 compound, the compound was dissolved in a 5% glucose injectable solution, and the solution was administered once at a dose of 25 mg/kg or 12.5 mg/kg. In regard to the Example 3 compound, the compound was dissolved in a 5% glucose injectable solution, and the solution was administered once at a dose of 20 mg/kg or 10 mg/kg. In regard to the Example 4 compound, the compound was dissolved in a 5% glucose injectable solution, and the solution was administered once at a dose of 20 mg/kg or 10 mg/kg. In regard to the Example 5 compound, the compound was dissolved in a 5% glucose injectable solution, and the solution was administered once at a dose of 20 mg/kg or 10 mg/kg. As a control drug, l-OHP was administered once at a dose of 20 mg/kg, and cisplatin was administered once at a dose of 10 mg/kg. Regarding the amounts of administration of l-OHP and cisplatin and the high amounts of administration of the various Example compounds, the maximum tolerable doses (MTD doses) were employed for all of the compounds. After the administration, the major axis (L) and the minor axis (W) of the tumor were measured over time using calipers, and the tumor volume (L×W×W×0.5) was calculated. The test was performed by employing four animals per group for all of a non-administered group as well as various drug-administered groups. During the period from the initiation of administration to the 21st day after administration, the relative tumor volume (T/C (%)) of each drug-administered group based on the relative tumor volume of a non-drug-administered group as 100 was calculated by the following formula as an index for the antitumor effect. T/C(%)=Relative tumor volume of administered group/relative tumor volume of non-administered group×100 Formula: […]
Human stomach cancer 4-1ST was collected subcutaneously from a nude mouse and was cut into blocks each measuring about 3 mm on each side. The tumor blocks thus obtained were transplanted subcutaneously on the dorsal side of nude mice using a trocar. On the 17th day after transplantation, where the average tumor volume had reached about 100 to 200 mm^3, various drugs were administered through the caudal vein. The use and dose (in terms of drug) of the various administered drugs are as follows. In regard to the Example 11 compound, the compound was dissolved in a 5% glucose injectable solution, and the solution was administered once at a dose of 15 mg/kg or 7.5 mg/kg. In regard to the Example 12 compound, the compound was dissolved in a 5% glucose injectable solution, and the solution was administered once at a dose of 30 mg/kg or 15 mg/kg. As a control drug, l-OHP was administered once at a dose of 18 mg/kg, and cisplatin was administered once at a dose of 10 mg/kg. Regarding the amounts of administration of l-OHP and cisplatin and the high amounts of administration of the various Example compounds, the maximum tolerable doses (MTD doses) were employed for all of the compounds. After the administration, the major axis (L) and the minor axis (W) of the tumor were measured over time using calipers, and the tumor volume (L×W×W×0.5) was calculated. The test was performed by employing four animals per group for all of a non-administered group as well as various drug-administered groups. […]

[2] = Body weight of mice in Antitumor Test 2; assay type: in vivo; conditions: 18 mg/kg once, caudal vein
Method: Human stomach cancer 4-1ST was collected subcutaneously from a nude mouse and was cut into blocks each measuring about 3 mm on each side. The tumor blocks thus obtained were transplanted subcutaneously on the dorsal side of nude mice using a trocar. On the 17th day after transplantation, where the average tumor volume had reached about 100 to 200 mm^3, various drugs were administered through the caudal vein. The use and dose (in terms of drug) of the various administered drugs are as follows. In regard to the Example 11 compound, the compound was dissolved in a 5% glucose injectable solution, and the solution was administered once at a dose of 15 mg/kg or 7.5 mg/kg. In regard to the Example 12 compound, the compound was dissolved in a 5% glucose injectable solution, and the solution was administered once at a dose of 30 mg/kg or 15 mg/kg. As a control drug, l-OHP was administered once at a dose of 18 mg/kg, and cisplatin was administered once at a dose of 10 mg/kg. Regarding the amounts of administration of l-OHP and cisplatin and the high amounts of administration of the various Example compounds, the maximum tolerable doses (MTD doses) were employed for all of the compounds. After the administration, the major axis (L) and the minor axis (W) of the tumor were measured over time using calipers, and the tumor volume (L×W×W×0.5) was calculated. The test was performed by employing four animals per group for all of a non-administered group as well as various drug-administered groups. During the period from the initiation of administration to the 21st day after administration, the relative tumor volume (T/C (%)) of each drug-administered group based on the relative tumor volume of a non-drug-administered group as 100 was calculated by the following formula as an index for the antitumor effect. T/C(%)=Relative tumor volume of administered group/relative tumor volume of non-administered group×100 Formula: […]
After the administration, the body weights of the mice were measured over time. During the period from the initiation of administration to the 21st day after administration, the changes in the relative body weight based on the body weight on the day of initiation of administration as 1 are presented in Table 5.

| SMILES | maximum tolerable dose (MTD dose) ([1]; Antitumor Test 1) [mg/kg] | maximum tolerable dose (MTD dose) ([1]; Antitumor Test 2) [mg/kg] | maximum tolerable dose (MTD dose) ([1]; Antitumor Test 3) [mg/kg] | Relative body weight in numbers of days after administration ([2]; day 0) | Relative body weight in numbers of days after administration ([2]; day 4) | Relative body weight in numbers of days after administration ([2]; day 7) | Relative body weight in numbers of days after administration ([2]; day 11) | Relative body weight in numbers of days after administration ([2]; day 14) | Relative body weight in numbers of days after administration ([2]; day 18) | Relative body weight in numbers of days after administration ([2]; day 21) |
| --- | --- | --- | --- | --- | --- | --- | --- | --- | --- | --- |
| N.N.[Cl][Pt][Cl] [Cisplatin, cisplatin] | 10 | 10 | 10 | – | – | – | – | – | – | – |
| O=C1[O][Pt]2([NH][C@@H]3CCCC[C@H]3[NH]2)[O]C1=O [l-OHP, oxaliplatin] | 20 | 18 | 18 | 1.00 | 0.78 | 0.83 | 0.93 | 1.03 | 1.09 | 1.05 |
